This note sets out measurements from patent US20260021186A1, “Fatty Acid-D-Amino Acid Peptides Conjugates as Anaplerotic Compounds for Use in Treating Propionic Acidemia, Methylmalonic Acidurias, and Energy Metabolic Disorders” (University of Pittsburgh - Of the Commonwealth System of …, priority 2022, published 2026).

Assay [1] deals with control fibroblast cell line FB826. The assay can be described thus: Mitochondrial ROS production using MitoSOX Red. Type of assay: cell-based, human. The settings on record: FIG. 15A; 180 and 640 μM, 72 h. The source says:
(§1) FIGS. 15A-15D are graphs showing the measurement of mitochondrial reactive oxygen species (ROS) production using MitoSOX Red as Superoxide indicator probe. FIG. 15A is a graph showing control fibroblast cell line FB826 treated with PMA010, PMA011, PMA019, and PMA020. FIG. 15B is a graph showing propionic acidemia (PA) patients' fibroblast cell linc Fb859 treated with PMA010, PMA011, PMA019, and PMA020. FIG. 15C is a graph showing propionic acidemia (PA) patients' fibroblast cells line Fb900 treated with PMA010, PMA011, PMA019, and PMA020. FIG. 15D is a graph comparing ROS production levels in response to treatment with PMA011 in Control fibroblast cell line (FB826), PA fibroblast cell line (Fb900), and glutaric acidemia II (GA II) patient fibroblast cell lines (Fb930, Fb961). Data are the average of readings from 3 replicate wells.
(§2) Measurement of mitochondrial ROS production using MitoSOX Red as superoxide indicator probe: control (Fb826), PA patient (Fb859, Fb900) and GA II patient (Fb930, Fb961) fibroblasts were grown in regular DMEM media containing glucose/pyruvate/L-glutamine until 85-90% confluency. The cells were harvested and seeded at a concentration of 25,000 cells/80 μl (n=3) in cell culture treated black wall 96 well microplate with clear bottom in regular DMEM media containing glucose/pyruvate/L-glutamine and incubated overnight at 37° C. in a 5% CO2 incubator. Following day, the culture media was replaced in designated wells with the following for 72 h: 150 μl regular DMEM (Glucose+10% FBS+sodium pyruvate+L-glutamine+0.5 mM carnitine). 150 μl of Regular DMEM containing experimental compounds (180 and 640 μM) PMA010 or PMA011 or PMA 019 and (640 μM) PMA020 in control and propionic acidemia patient fibroblasts. 150 μl of regular DMEM containing experimental compounds (600 and 1200 μM) PMA011 in Fb930 and (1200 μM) PMA011 in Fb961 GA II patient fibroblast. After 72 h incubation the wells were washed twice with 150 μL of Seahorse XFDMEM base media and in respective designated wells the following Assay buffer (150 μL of seahorse XFDMEM base media containing glucose, sodium pyruvate and Glutamine) was used along with 5 μM MitoSOX reagent and incubated at 37° C. non-CO2 incubator for 15 minutes protected from light. After 15 minutes incubation the cells were washed twice with 150 μL of seahorse XFDMEM base media and replaced with measurement buffer, which is same as the wash buffer. The fluorescence was monitored with excitation at 520 nm and emission at 580 nm. Finally, cells were lysed, and protein content was determined. Data is normalized to protein concentration and fluorescence is reported as MitoSOX Red (AFU)/mg protein.

Assay [2] has as its system propionic acidemia (PA) fibroblast cell line Fb900. The assay can be described thus: Mitochondrial ROS production using MitoSOX Red. Type of assay: cell-based, human. The note with it: FIG. 15C; 180 and 640 μM, 72 h.
From the text: as §1, §2

Take `C[C@@H](NC(=O)CCCCC(=O)O)C(=O)N[C@H](Cc1c[nH]cn1)C(=O)O` [PMA010, 6-(((R)-1-(((R)-1-carboxy-2-(1H-imidazol-4-yl)ethyl)amino)-1-oxopropan-2-yl)amino)-6-oxohexanoic acid]: the “ROS detected (MitoSOX Red)” value in assay [1] and in assay [2] was “significant decrease in ROS” throughout.
